# Read-outs that look alike come from different tables or passages of the source.
# Columns and labels:
# [1] = tested on: 5-methyltryptophan-sensitive bacteria; details: cited from earlier work
# 8AG^R mutants = test: Uptake of tagged 8AG by 8AG^R mutant clones; format: cell-based, S. typhimurium
# 8AG^R clones = format: cell-based, S. typhimurium; details: for plating efficiency, 8AG w/cells: 50 ug/ml 8AG plus 10^6 8AG^S cells; for plating efficiency, 8AG: 50 ug/ml 8AG, control 1.00
# wild-type control = format: cell-based, S. typhimurium
# [2] = tested on: S. typhimurium strain TM35
# [3] = tested on: 8AG^R mutant fraction of S. typhimurium cultures
# [4] = tested on: mixed population of 8AG^S and 8AG^R cells; test: Reconstruction experiment 2: mixed 8AG^R/8AG^S population exposed to the mutation assay protocol; details: 2 hr
compound,measurement,setting,value
Cc1ccc2[nH]cc(C[C@H](N)C(=O)O)c2c1 [5-methyltryptophan],growth inhibition of 5-methyltryptophan-sensitive bacteria,[1],not completely inhibited
same,effect of varying the concentration on observed mutant fraction,[1]; varying concentration,changes the observed mutant fraction
"Nc1nc2nn[nH]c2c(=O)[nH]1 [8AG, 8-azaguanine]","activity (8AG incorporation), mutants with no detectable activity",8AG^R mutants; 9 of the mutants tested,< 0.04%
same,8AG Inc. (% wild-type),8AG^R mutants; mutant 9AA-1 (induced by 9AA),< 0.04 % wild-type
same,8AG Inc. (% wild-type),8AG^R mutants; mutant 9AA-2 (induced by 9AA),< 0.04 % wild-type
same,8AG Inc. (% wild-type),8AG^R mutants; mutant 9AA-3 (induced by 9AA),< 0.04 % wild-type
same,8AG Inc. (% wild-type),8AG^R mutants; mutant 9AA-4 (induced by 9AA),< 0.04 % wild-type
same,8AG Inc. (% wild-type),8AG^R mutants; mutant 9AA-5 (induced by 9AA),< 0.04 % wild-type
same,8AG Inc. (% wild-type),8AG^R mutants; mutant BPL-1 (induced by βPL),0.1 % wild-type
same,8AG Inc. (% wild-type),8AG^R mutants; mutant BPL-2 (induced by βPL),2.5 % wild-type
same,8AG Inc. (% wild-type),8AG^R mutants; mutant BPL-3 (induced by βPL),7.1 % wild-type
same,8AG Inc. (% wild-type),8AG^R mutants; mutant BPL-4 (induced by βPL),1.8 % wild-type
same,8AG Inc. (% wild-type),8AG^R mutants; mutant BPL-5 (induced by βPL),1.2 % wild-type
same,8AG Inc. (% wild-type),8AG^R mutants; mutant ICR-1 (induced by ICR191),< 0.04 % wild-type
same,8AG Inc. (% wild-type),8AG^R mutants; mutant ICR-2 (induced by ICR191),< 0.04 % wild-type
same,8AG Inc. (% wild-type),8AG^R mutants; mutant ICR-3 (induced by ICR191),0.80 % wild-type
same,8AG Inc. (% wild-type),8AG^R mutants; mutant ICR-4 (induced by ICR191),< 0.04 % wild-type
same,8AG Inc. (% wild-type),8AG^R mutants; mutant ICR-5 (induced by ICR191),11.8 % wild-type
same,8AG Inc. (% wild-type),8AG^R mutants; mutant NG-1 (induced by MNNG),0.04 % wild-type
same,8AG Inc. (% wild-type),8AG^R mutants; mutant NG-2 (induced by MNNG),5.1 % wild-type
same,8AG Inc. (% wild-type),8AG^R mutants; mutant NG-3 (induced by MNNG),2.2 % wild-type
same,8AG Inc. (% wild-type),8AG^R mutants; mutant NG-4 (induced by MNNG),4.9 % wild-type
same,8AG Inc. (% wild-type),8AG^R mutants; mutant NG-5 (induced by MNNG),3.2 % wild-type
same,8AG Inc. (% wild-type),8AG^R mutants; mutant S-1 (spontaneous),2.4 % wild-type
same,8AG Inc. (% wild-type),8AG^R mutants; mutant S-2 (spontaneous),1.7 % wild-type
same,8AG Inc. (% wild-type),8AG^R mutants; mutant S-3 (spontaneous),18.3 % wild-type
same,8AG Inc. (% wild-type),8AG^R mutants; mutant S-4 (spontaneous),5.9 % wild-type
same,8AG Inc. (% wild-type),8AG^R mutants; mutant S-5 (spontaneous),19.5 % wild-type
same,"effect on plating efficiency, 8AG alone",8AG^R clones,no effect
same,"effect on plating efficiency, 8AG with 8AG^S cells",8AG^R clones,did decrease plating efficiency slightly
same,"plating efficiency, 8AG w/cells",8AG^R clones; clone S-1,0.8 ± .07
same,"plating efficiency, 8AG",8AG^R clones; clone S-1,0.93 ± .05
same,"plating efficiency, 8AG w/cells",8AG^R clones; clone S-2,1.04 ± .03
same,"plating efficiency, 8AG",8AG^R clones; clone S-2,1.16 ± .03
same,"plating efficiency, 8AG w/cells","8AG^R clones; clone S-3, * statistically less than control (p < .05)",0.87 ± .08
same,"plating efficiency, 8AG",8AG^R clones; clone S-3,0.95 ± .03
same,"plating efficiency, 8AG w/cells","8AG^R clones; clone S-4, * statistically less than control (p < .05)",0.83 ± .03
same,"plating efficiency, 8AG",8AG^R clones; clone S-4,0.98 ± .01
same,"plating efficiency, 8AG w/cells","8AG^R clones; clone S-5, * statistically less than control (p < .05)",0.73 ± .08
same,"plating efficiency, 8AG",8AG^R clones; clone S-5,0.92 ± .01
same,8AG incorporation rate of the wild-type control,wild-type control,5×10^-18 moles/cell-hr
same,Uptake in the control over time,wild-type control,linear through the 2 hr incubation
"Nc1c2ccccc2nc2ccccc12 [9AA, 9-aminoacridine]",induced mutant fractions (M.F.),[2],significantly higher than background levels
COc1ccc2nc3cc(Cl)ccc3c(NCCCNCCCl)c2c1 [ICR-191],induced mutant fractions (M.F.),[2],significantly higher than background levels
same,8AG^R mutant fraction when cultures are allowed to grow before plating,[3],drops significantly and then stabilizes at a constant level
"O=C1CCO1 [βPL, β-propiolactone]",induced mutant fractions (M.F.),[2],significantly higher than background levels
same,ratio of 8AG^R cells to 8AG^S cells in the treated population,"[4]; 0, 0.16, and 1.60 mM",did not suffer significantly
same,survival of the mixed population,"[4]; high concentration (0, 0.16 and 1.60 mM tested)",killed a significant portion of the mixed population

# Source: patent publication US4299915A (priority 1977, dated 1981)
